Source: patent US20110173718A1, “HERBICIDE TOLERANT PLANTS” (SYNGENTA CROP PROTECTION, INC., priority 2008, published 2011)

Test system: tobacco (var Samsun) plantlets on liquid culture medium
Test: HST + HPPD herbicide effects on tobacco seedlings on liquid culture medium
Assay type: in vivo
Conditions: for % bleaching, +mesotrione 0.001 ppm / % bleaching, HST herbicide alone: liquid culture medium, 14 DAT; for effect of low amounts of mesotrione on the injury down the dose response: liquid culture, repeat experiments
Protocol: In an alternative herbicide test procedure tobacco (var Samsun) plantlets germinated aseptically in agar made up in 1/3 strength Murashige and Skoog salts medium are transferred after 4 d to float on top of 2.9 ml of sterile liquid culture medium (half strength Murashige and Skoog medium containing 30 mM sucrose) in wells of 12 well plates. Test compounds are added at various doses and bleaching damage is assessed after 14-20 DAT. The plantlets are kept covered under clear perspex and grown at 18° C. (night) and 24° C. (day) under a 1611 day (˜500-900 umol/m^2), 8 h darkness regime Plantlets continue to grow and produce new tissue over the 14-20 DAT period but are bleached and grow less in the presence of controlling concentrations of herbicide.

[1] = 0.19 ppm + mesotrione 0.001 ppm
[2] = 0.58 ppm + mesotrione 0.001 ppm

SMILES | % bleaching, +mesotrione 0.001 ppm [1] | % bleaching, HST herbicide alone (0.19 ppm) | % bleaching, +mesotrione 0.001 ppm [2] | % bleaching, HST herbicide alone (0.58 ppm) | % bleaching, +mesotrione 0.001 ppm (1.7 ppm + mesotrione 0.001 ppm) | % bleaching, HST herbicide alone (1.7 ppm) | % bleaching, +mesotrione 0.001 ppm (5.2 ppm + mesotrione 0.001 ppm) | % bleaching, HST herbicide alone (5.2 ppm) | % bleaching, +mesotrione 0.001 ppm (16 ppm + mesotrione 0.001 ppm) | % bleaching, HST herbicide alone (16 ppm) | % bleaching, +mesotrione 0.001 ppm (47 ppm + mesotrione 0.001 ppm) | % bleaching, HST herbicide alone (47 ppm) | effect of low amounts of mesotrione on the injury down the dose response
Oc1c(Cl)c(F)nc(F)c1Cl [Compound 1.1, haloxydine] | 100% | 50% | 100% | 90% | 100% | 100% | 100% | 100% | 100% | 100% | 100% | 100% | clear synergistic effects
O=c1c(-c2c(F)ccc(Br)c2Cl)c(O)c2cccnc2n1CC(F)F [Compound 2.15] | 0% | 5% | 5% | 0% | 80% | 5% | 70% | 40% | 100% | 100% | 100% | 100% | clear synergistic effects
